# Molecular target: T1, human PAH with the R408W mutation (Homo sapiens, UniProt P00439, R408W)
# T1 construct: expressed in transfected cells
# T1 sequence (P00439 1-452 R408W): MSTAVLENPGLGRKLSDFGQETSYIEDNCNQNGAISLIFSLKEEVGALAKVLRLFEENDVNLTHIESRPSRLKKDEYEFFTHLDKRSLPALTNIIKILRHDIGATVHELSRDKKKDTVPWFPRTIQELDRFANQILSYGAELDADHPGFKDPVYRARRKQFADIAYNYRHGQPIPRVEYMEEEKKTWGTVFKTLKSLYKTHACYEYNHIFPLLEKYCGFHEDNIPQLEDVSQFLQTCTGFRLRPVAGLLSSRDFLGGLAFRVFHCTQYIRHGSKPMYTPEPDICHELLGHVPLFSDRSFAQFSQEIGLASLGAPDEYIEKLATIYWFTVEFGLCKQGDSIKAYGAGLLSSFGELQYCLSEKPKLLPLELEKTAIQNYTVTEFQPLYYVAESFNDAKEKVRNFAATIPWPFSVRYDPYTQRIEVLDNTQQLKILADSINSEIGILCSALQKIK
# Assay: Cell Based Phenylalanine Flux Assay;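 further: after compound treatment, cells received sepiapterin plus isotope-labelled Phenylalanine for 4 hours, then labelled Tyrosine in the medium was quantified, 10-point 2-fold dilution series run in duplicate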
# Conditions: A375 cells expressing human PAH R408W; 24 hrs compound incubation; 13C-Tyrosine by LC-MS; average where tested multiple times; read-out: AC50
row,SMILES,AC50
1,"Fc1cccc(F)c1-c1nnc(N2CCc3[nH]cnc3[C@H]2c2cc3c(C(F)F)cccn3n2)o1 [Example 1863, (S)-2-(4-(4-(difluoromethyl)pyrazolo[1,5-a]pyridin-2-yl)-1,4,6,7-tetrahydro-5H-imidazo[4,5-c]pyridin-5-yl)-5-(2,6-difluorophenyl)-1,3,4-oxadiazole]",< 500 nM
2,"Cn1cc(-c2nnc(C(=O)N3CCc4[nH]cnc4[C@H]3c3cc4c(Br)cccn4n3)o2)cn1 [Example 1868, (S)-(4-(4-bromopyrazolo[1,5-a]pyridin-2-yl)1,4,6,7-tetrahydro-5H-imidazo[4,5-c]pyridin-5-yl)(5-(1-methyl-1H-pyrazol-4-yl)-1,3,4-oxadiazol-2-yl)methanone]",< 500 nM
3,"Cn1cc(-c2nnc(C(=O)N3CCc4[nH]cnc4[C@@H]3c3cc4c(Br)cccn4n3)o2)cn1 [Example 1869, (R)-(4-(4-bromopyrazolo[1,5-a]pyridin-2-yl)-1,4,6,7-tetrahydro-5H-imidazo[4,5-c]pyridin-5-yl)(5-(1-methyl-1H-pyrazol-4-yl)-1,3,4-oxadiazol-2-yl)methanone]",> 5000 nM
4,"FC(F)(F)c1cccn2nc([C@@H]3c4nc[nH]c4CCN3c3ccccn3)cc12 [Example 1870, (S)-5-(pyridin-2-yl)-4-(4-(trifluoromethyl)pyrazolo[1,5-a]pyridin-2-yl)-4,5,6,7-tetrahydro-1H-imidazo[4,5-c]pyridine]",< 500 nM
5,"FC(F)(F)c1cccn2nc([C@H]3c4nc[nH]c4CCN3c3ccccn3)cc12 [Example 1871, (R)-5-(pyridin-2-yl)-4-(4-(trifluoromethyl)pyrazolo[1,5-a]pyridin-2-yl)-4,5,6,7-tetrahydro-1H-imidazo[4,5-c]pyridine]",> 5000 nM
6,"Nc1cnc(N2CCc3[nH]cnc3[C@@H]2c2cc3c(Cl)cccn3n2)nc1 [Example 1872, (R)-2-(4-(4-chloropyrazolo[1,5-a]pyridin-2-yl)-1,4,6,7-tetrahydro-5H-imidazo[4,5-c]pyridin-5-yl)pyrimidin-5-amine]",> 5000 nM
7,"Nc1cnc(N2CCc3[nH]cnc3[C@H]2c2cc3c(Cl)cccn3n2)nc1 [Example 1873, (S)-2-(4-(4-chloropyrazolo[1,5-a]pyridin-2-yl)-1,4,6,7-tetrahydro-5H-imidazo[4,5-c]pyridin-5-yl)pyrimidin-5-amine]",500 to 1000 nM
8,"CCc1cccn2nc([C@H]3c4nc[nH]c4CCN3C(=O)c3nnc(C4CC4)o3)cc12 [Example 1874, (R)-(5-cyclopropyl-1,3,4-oxadiazol-2-yl)(4-(4-ethylpyrazolo[1,5-a]pyridin-2-yl)-1,4,6,7-tetrahydro-5H-imidazo[4,5-c]pyridin-5-yl)methanone]",> 5000 nM
9,"CCc1cccn2nc([C@@H]3c4nc[nH]c4CCN3C(=O)c3nnc(C4CC4)o3)cc12 [Example 1875, (S)-(5-cyclopropyl-1,3,4-oxadiazol-2-yl)(4-(4-ethylpyrazolo[1,5-a]pyridin-2-yl)-1,4,6,7-tetrahydro-5H-imidazo[4,5-c]pyridin-5-yl)methanone]",< 500 nM
10,"Cn1cc(-c2nnc(C(=O)N3CCc4[nH]cnc4[C@H]3c3cc4c(C5CC5)cccn4n3)o2)cn1 [Example 1876, (S)-(4-(4-cyclopropylpyrazolo[1,5-a]pyridin-2-yl)-1,4,6,7-tetrahydro-5H-imidazo[4,5-c]pyridin-5-yl)(5-(1-methyl-1H-pyrazol-4-yl)-1,3,4-oxadiazol-2-yl)methanone]",500 to 1000 nM
11,"Cn1cc(-c2nnc(C(=O)N3CCc4[nH]cnc4[C@@H]3c3cc4c(C5CC5)cccn4n3)o2)cn1 [Example 1877, (R)-(4-(4-cyclopropylpyrazolo[1,5-a]pyridin-2-yl)-1,4,6,7-tetrahydro-5H-imidazo[4,5-c]pyridin-5-yl)(5-(1-methyl-1H-pyrazol-4-yl)-1,3,4-oxadiazol-2-yl)methanone]",> 5000 nM
12,"O=C(c1nnc(-c2cnn(C(F)F)c2)o1)N1CCc2[nH]cnc2[C@H]1c1cc2c(C3CC3)cccn2n1 [Example 1878, (S)-(4-(4-cyclopropylpyrazolo[1,5-a]pyridin-2-yl)-1,4,6,7-tetrahydro-5H-imidazo[4,5-c]pyridin-5-yl)(5-(1-(difluoromethyl)-1H-pyrazol-4-yl)-1,3,4-oxadiazol-2-yl)methanone]",500 to 1000 nM
13,"O=C(c1nnc(-c2ccn(C(F)(F)F)n2)o1)N1CCc2[nH]cnc2[C@H]1c1cc2c(C3CC3)cccn2n1 [Example 1880, (S)-(4-(4-cyclopropylpyrazolo[1,5-a]pyridin-2-yl)-1,4,6,7-tetrahydro-5H-imidazo[4,5-c]pyridin-5-yl)(5-(1-(trifluoromethyl)-1H-pyrazol-3-yl)-1,3,4-oxadiazol-2-yl)methanone]",< 500 nM
14,"O=C(c1nnc(-c2ccn(C(F)(F)F)n2)o1)N1CCc2[nH]cnc2[C@@H]1c1cc2c(C3CC3)cccn2n1 [Example 1881, (R)-(4-(4-cyclopropylpyrazolo[1,5-a]pyridin-2-yl)-1,4,6,7-tetrahydro-5H-imidazo[4,5-c]pyridin-5-yl)(5-(1-(trifluoromethyl)-1H-pyrazol-3-yl)-1,3,4-oxadiazol-2-yl)methanone]",> 5000 nM
15,"CC(C)c1cccn2nc([C@@H]3c4nc[nH]c4CCN3C(=O)c3nnc(C4CC4)o3)cc12 [Example 1882, (S)-(5-cyclopropyl-1,3,4-oxadiazol-2-yl)(4-(4-isopropylpyrazolo[1,5-a]pyridin-2-yl)-1,4,6,7-tetrahydro-5H-imidazo[4,5-c]pyridin-5-yl)methanone]",< 500 nM
16,"CC(C)c1cccn2nc([C@@H]3c4nc[nH]c4CCN3C(=O)c3nnc(C(C)(C)F)o3)cc12 [Example 1884, (S)-(5-(2-fluoropropan-2-yl)-1,3,4-oxadiazol-2-yl)(4-(4-isopropylpyrazolo[1,5-a]pyridin-2-yl)-1,4,6,7-tetrahydro-5H-imidazo[4,5-c]pyridin-5-yl)methanone]",< 500 nM
17,"CC(C)c1cccn2nc([C@H]3c4nc[nH]c4CCN3C(=O)c3nnc(C(C)(C)F)o3)cc12 [Example 1885, (R)-(5-(2-fluoropropan-2-yl)-1,3,4-oxadiazol-2-yl)(4-(4-isopropylpyrazolo[1,5-a]pyridin-2-yl)-1,4,6,7-tetrahydro-5H-imidazo[4,5-c]pyridin-5-yl)methanone]",> 5000 nM
18,"CC(C)c1cccn2nc([C@@H]3c4nc[nH]c4CCN3C(=O)c3nnc(-c4cnn(C)c4)o3)cc12 [Example 1886, (S)-(4-(4-isopropylpyrazolo[1,5-a]pyridin-2-yl)-1,4,6,7-tetrahydro-5H-imidazo[4,5-c]pyridin-5-yl)(5-(1-methyl-1H-pyrazol-4-yl)-1,3,4-oxadiazol-2-yl)methanone]",< 500 nM

# Continued, values first:
row,AC50,SMILES
1,> 5000 nM,"CC(C)c1cccn2nc([C@H]3c4nc[nH]c4CCN3C(=O)c3nnc(-c4cnn(C)c4)o3)cc12 [Example 1887, (R)-(4-(4-isopropylpyrazolo[1,5-a]pyridin-2-yl)-1,4,6,7-tetrahydro-5H-imidazo[4,5-c]pyridin-5-yl)(5-(1-methyl-1H-pyrazol-4-yl)-1,3,4-oxadiazol-2-yl)methanone]"
2,< 500 nM,"Cn1ccc(-c2nnc(C(=O)N3CCc4[nH]cnc4[C@H]3c3cc4c(Br)cccn4n3)o2)n1 [Example 1889, (S)-(4-(4-bromopyrazolo[1,5-a]pyridin-2-yl)-1,4,6,7-tetrahydro-5H-imidazo[4,5-c]pyridin-5-yl)(5-(1-methyl-1H-pyrazol-3-yl)-1,3,4-oxadiazol-2-yl)methanone]"
3,< 500 nM,"Cc1cccn2nc([C@@H]3c4nc[nH]c4CCN3c3nnc(-c4ccc(F)cc4)o3)cc12 [Example 1891, (S)-2-(4-fluorophenyl)-5-(4-(4-methylpyrazolo[1,5-a]pyridin-2-yl)-1,4,6,7-tetrahydro-5H-imidazo[4,5-c]pyridin-5-yl)-1,3,4-oxadiazole]"
4,< 500 nM,"Fc1ccc(-c2nnc(N3CCc4[nH]cnc4[C@H]3c3cc4c(C(F)(F)F)cccn4n3)o2)cc1 [Example 1893, (S)-2-(4-fluorophenyl)-5-(4-(4-(trifluoromethyl)pyrazolo[1,5-a]pyridin-2-yl)-1,4,6,7-tetrahydro-5H-imidazo[4,5-c]pyridin-5-yl)-1,3,4-oxadiazole]"
5,> 5000 nM,"CCc1cccn2nc([C@H]3c4nc[nH]c4CCN3C(=O)c3nnc(-c4ccccn4)o3)cc12 [Example 1894, (R)-(4-(4-ethylpyrazolo[1,5-a]pyridin-2-yl)-1,4,6,7-tetrahydro-5H-imidazo[4,5-c]pyridin-5-yl)(5-(pyridin-2-yl)-1,3,4-oxadiazol-2-yl)methanone]"
6,> 5000 nM,"O=C(c1nnc(-c2ccccn2)o1)N1CCc2[nH]cnc2[C@@H]1c1cc2c(C3CC3)cccn2n1 [Example 1896, (R)-(4-(4-cyclopropylpyrazolo[1,5-a]pyridin-2-yl)-1,4,6,7-tetrahydro-5H-imidazo[4,5-c]pyridin-5-yl)(5-(pyridin-2-yl)-1,3,4-oxadiazol-2-yl)methanone]"
7,< 500 nM,"Cc1c(-c2nnc(C(=O)N3CCc4[nH]cnc4[C@H]3c3cc4c(C5CC5)cccn4n3)o2)cnn1C [Example 1898, (S)-(4-(4-cyclopropylpyrazolo[1,5-a]pyridin-2-yl)-1,4,6,7-tetrahydro-5H-imidazo[4,5-c]pyridin-5-yl)(5-(1,5-dimethyl-1H-pyrazol-4-yl)-1,3,4-oxadiazol-2-yl)methanone]"
8,1000 to 5000 nM,"Cc1c(-c2nnc(C(=O)N3CCc4[nH]cnc4[C@@H]3c3cc4c(C5CC5)cccn4n3)o2)cnn1C [Example 1899, (R)-(4-(4-cyclopropylpyrazolo[1,5-a]pyridin-2-yl)-1,4,6,7-tetrahydro-5H-imidazo[4,5-c]pyridin-5-yl)(5-(1,5-dimethyl-1H-pyrazol-4-yl)-1,3,4-oxadiazol-2-yl)methanone]"
